Source: paper PMC7669869, “AdipoR1/AdipoR2 dual agonist recovers nonalcoholic steatohepatitis and related fibrosis via endoplasmic reticulum-mitochondria axis” (Nature Communications, 2020)
Where “and” joins values, the source holds several entries; their conditions need not be identical. Identical values can stand only once. Non-standard residues stand in square brackets, D forms with d. Residues, ends and D or L forms follow the SMILES beside them. Nva = CCC[C@H](N)C(=O)O

How the values were obtained:
HFD induced NASH mice = experiment: HFD mice: liver histology (HE, PAS, Oil Red O); assay type: in vivo, mouse; conditions: JT003 500 μg kg−1 i.p. daily 4 weeks, in words
Method: The NASH model was conducted with feeding a HFD for 16 weeks combine with a MCD diet (Methionine/Choline Deficient Diet, Medicience, China) in the last 4 weeks. Mice administered a MCS diet (Methionine/Choline Sufficient Diet, Medicience, China) serves as control group. NAFLD or NASH mice treated with JT003 for 4 weeks were used to evaluate the pharmacological effects (n = 6; 500 μg kg^−1; daily intraperitoneal injection). Food and water were provided ad libitum. The body weight of mice was examined every 3 days. The diet was renewed every 7 days. JT003 was diluted in PBS.
(§1) The levels of TG and HYP in liver tissue were detected with certain commercial assay kit (Nanjing Jiancheng Bioengineering Institute, China). Formalin-fixed liver tissues were embedded in paraffin, sectioned into 5 μm slices. After deparaffinization and rehydration of the section slices, they were stained with Haematoxylin and Eosin or Periodic Acid-Schiff. For the detection of liver collagen content, Sirius Red staining for collagen was performed. OCT-embedded frozen liver tissues were sectioned into 12 μm slices, and Oil Red O staining was performed. The cryostat-cut slices were stained with freshly prepared Oil Red O working solution for 7 min Two independent experimenters who were blinded to the treatment evaluated the staining slides and analyzed the score for steatosis, glucogen accumulation and collagen proliferation area.

[1] = Pharmacokinetic assay in SD rats; assay type: in vivo, rat
Method: Male SpragueDawley (SD) rats were randomly divided into two groups (n = 3 per group) and received a single intravenous dose of JT003 (0.5 mg/kg) or ADP355 (1.0 mg kg^−1) respectively. Blood samples were collected at 5, 15, 30, 45 min and 1, 2, 3 h following the injection, and then were immediately centrifuged (4000g, 10 min, 4 °C) to obtain plasma samples. Plasma concentrations of the two peptides were measured by LC-MS/MS (ThermoFisher Scientific, USA). Pharmacokinetic parameters of JT003 and ADP355 were calculated using non-compartmental analysis in Phoenix WinNonlin (version 8.0, Pharsight, USA). The concentration values less than the LLOQ were set to zero for the analysis.

[2] = test system: CCl4 induced liver fibrosis mice; experiment: CCl4 mice: apoptosis assay (TUNEL); assay type: in vivo, mouse; design: unit not given here; conditions: CCl4 + JT003 mice
Method: (§2) Male mice liver fibrosis was induced by intraperitoneal injection of 20% CCl4 (Sigma, USA) diluted in corn oil (Aladdin, China) every 3 days for 6 weeks (n = 6; 5 ml kg^−1 body weight). Mice injected with equivalent volume of corn oil serves as control group (n = 6). Liver fibrosis mice treated with JT003 for 3 weeks were used to evaluated the pharmacological effects (n = 6; 500 μg kg^−1; daily intraperitoneal injection).
TUNEL assay was performed using 5 μm liver sections and the apoptotic cells were identified using a Cell Death Detection kit (Beyotime Biotechnology, Shanghai, China). And then the slices were counterstained with DAPI (Life science, ThermoFisher Scientific, USA). Six random fields from 6 slides per mice were examined, and the TUNEL-positive red area within the slides were counted by two individuals who were blinded to the treatment.

[3] = test system: liver protein expression of CCl4 induced liver fibrosis mice; experiment: CCl4 mice: liver western blot; assay type: in vivo, mouse
Method: as §2
Total protein was isolated from cells or liver samples using RIPA lysis buffer (50.0 mM Tris-HCl (pH = 8.0), 150.0 mM NaCl, 0.02% NaN3, 0.1% SDS, 1% NP-40, 0.5% deoxysodium cholate, 1 mM EDTA, […]). The protein concentration was quantified with BCA kit (Pierce, ThermoFisher Scientific, USA). Thirty micrograms protein were separated by 10 or 12% sodium dodecyl sulfate-polyacrylamide gel electrophoresis depending on the band of target protein, then transferred onto equilibrated polyvinylidene difluoride membrane (PVDF, Immobilon®-PSQ transfer membranes, Merck Millipore, Germany). Membranes were incubated with primary antibodies overnight at 4 °C. Specific antibodies were listed in Supplementary Table 3. After incubation with the secondary antibody, proteins were detected by enhanced chemiluminescence (Glarity^TM Western ECL Substrate, Bio-Rad, USA) and the signals were recorded and quantified with Tanon-Image Software (Shanghai, China). Reference antibody GAPDH were used for data normalization.

[4] = test system: CCl4 induced liver fibrosis mice; experiment: CCl4 induced liver fibrosis mice: liver appearance, body weight, HE, Sirius red, IHC (αSMA, COL1α1, CD68); assay type: in vivo, mouse; conditions: in words
Method: as §2, §1
Paraffin-embedded liver slices were deparaffinized and rehydrated, antigen retrieval was performed under the high pressure and temperature in 0.01 M sodium citrate buffer (pH = 6.0). To quench the endogenous peroxidase activity, the slices were then incubated with 1% hydrogen peroxide in methanol for 10 min in room temperature. Then slices were incubated with corresponding primary antibodies. After washing, HRP-conjugated secondary antibodies specific to the species of the primary antibodies were used. After the section were developed with DAB, hematoxylin staining was performed for cell counting.

[5] = Sprague-Dawley, rat, male SD rats, single iv dose: JT003 0.5 mg/kg, ADP355 1.0 mg/kg, plasma, LC-MS/MS, non-compartmental, Mean ± SD, n = 3-6
[6] = Figure 7e, liver western blot, CCl4 + JT003 group, single replicates, n = 4
[7] = Figure 7f, liver western blot, CCl4 + JT003 group, single replicates, n = 4

CCC[C@H](NC(=O)[C@@H]1CCCN1)C(=O)N[C@@H](CC(C)C)C(=O)N[C@@H](Cc1ccc(O)cc1)C(=O)N[C@@H](Cc1ccc(O)cc1)C(=O)N[C@@H](Cc1ccccc1)C(=O)N[C@@H](C)C(N)=O [JT003] (H-P[Nva]LYYFA-NH2)
glycogen over accumulation (PAS staining and hepatocyte glycogen analysis) (HFD induced NASH mice): largely eliminated
lipid droplets in the liver (Oil red o staining) (HFD induced NASH mice): remarkably decreased lipid droplets
steatosis and inflammation area (HE staining) (HFD induced NASH mice): decreased
AUC(0-inf) [1, 5]: 20.9 ± 1.63 ng·h/mL
AUC(0-t) [1, 5]: 19.4 ± 1.51 ng·h/mL
MRT [1, 5]: 62.4 ± 1.8 min
clearance [1, 5]: 401 mL/min/kg
Vd ([1]; Sprague-Dawley, rat, male SD rats, single iv dose: JT003 0.5 mg/kg, ADP355 1.0 mg/kg, plasma, LC-MS/MS, non-compartmental, Mean ± SD, n = 3-6, read-out: V): 26 ± 2.29 L/kg
t1/2 ([1]; male SD rats, single iv dose: JT003 0.5 mg/kg, ADP355 1.0 mg/kg, plasma, LC-MS/MS, non-compartmental, Mean ± SD, n = 3-6 (n = 3 per group)): 45 ± 0.6 min and 45 min
improved circulating half-life vs the predecessor compound (ADP355) ([1]; reviewer's reading of the PK experiment): 7-8 fold
TUNEL, Supplementary Figure 16 ([2]; replicate 1): 0.177
TUNEL, Supplementary Figure 16 ([2]; replicate 2): 0.215
TUNEL, Supplementary Figure 16 ([2]; replicate 3): 0.261
TUNEL, Supplementary Figure 16 ([2]; replicate 4): 0.303
TUNEL, Supplementary Figure 16 ([2]; replicate 5): 0.387
TUNEL, Supplementary Figure 16 ([2]; replicate 6): 0.3
TUNEL, Supplementary Figure 16 ([2]; replicate 7): 0.353
TUNEL, Supplementary Figure 16 ([2]; replicate 8): 0.189
TUNEL, Supplementary Figure 16 ([2]; replicate 9): 0.125
TUNEL, Supplementary Figure 16 ([2]; replicate 10): 0.252
NFκB (western blotting) ([3]; CCl4 fibrosis mice, liver, JT003 500 μg kg−1, in words): significantly downregulated
phosphorylation levels of JNK, eIF2α and PERK ([3]; CCl4 induced fibrosis mice, liver, JT003 500 μg kg−1, in words): decreased phosphorylation levels
αSMA and COL1α1 (western blot, liver) ([3]; CCl4 mice, JT003 500 μg kg−1, in words): significant downregulation
pJNK/JNK [3, 6]: 0.7206 and 0.4902 and 0.6285 and 0.438
pPERK/PERK [3, 6]: 0.5616 and 0.9445 and 0.6641 and 0.5949
peIF2a/eIF2a [3, 6]: 1.116 and 0.4247 and 0.9192 and 0.3729
CYP2E1/GAPDH [3, 7]: 1.469 and 1.0581 and 1.298 and 1.11
PGC1a/GAPDH [3, 7]: 2.2635 and 2.209 and 2.565 and 2.497
anti-PP65 / anti-P65 western blot quantification ([3]; Figure 6d, liver, CCl4 + JT003 group, single replicates, n = 4): 0.3517 and 0.3717 and 0.2194 and 0.5295
inflammation, necrosis and fibrosis area (HE and sirius red staining) ([4]; CCl4 induced liver fibrosis mice, administration dosages of 0.5 mg kg−1 and 2 mg kg−1): significantly decreased
liver adhesion (dissected assays) ([4]; CCl4 induced liver fibrosis mice): reduced
IHC staining of CD68 (macrophage infiltration) ([4]; CCl4 mice, JT003 500 μg kg−1): markedly reduced the inflammation
immunohistochemical staining for αSMA and COL1α1 ([4]; CCl4 mice, JT003 500 μg kg−1): confirmed the improvement of liver fibrosis
